Measurements from patent EP0552379B1, “DIHYDROPYRIDINE DERIVATIVES, AND PROCESS FOR THEIR PREPARATION” (FUJISAWA PHARMACEUTICAL CO., LTD., priority 1991, dated 1993).

How the values were obtained:
β receptor = β receptor binding (^3H-Dihydroalprenolol (DHA) binding to crude cardiac microsomal membrane); design: species or system SD strain rats; conditions: [^3H]DHA 1nM, rat heart microsomal membrane, 25°C, 30 minutes
Method: (3) β receptor binding Test methods (a) Crude cardiac microsomal membrane preparation SD strain rats were sacrificed by decapitation. The heart was removed and homogenized in buffer (0.25M sucrose, 10mM MOPS, pH7.4) by using Polytoron (Kinematica). The homogenate was homogenized by teflon glass homogenizer. The homogenate was centrifuged (1,000g x 10 min) to remove tissue clumps and the supernatant was centrifuged (10,000g x 10 min) twice. The supernatant was centrifuged (100,000g x 60 min) to yield pellets. The pellets were resuspended in buffer (50mM Tris-HCl, pH7.4), which were referred to as crude microsomal membrane fractions. The obtained suspensions were stored at -80°C until use. (b) ^3H-Dihydroalprenolol (DHA) binding to preparative membrane Frozen crude microsomal membrane fractions were thawed. [^3H) DHA (1nM) was incubated with 50 µl of the membrane preparation at 25°C for 30 minutes in a final volume of 200 µl. At the end of the incubation period, reaction mixture was quickly filtrated over a Whatman GF/C glass filter under aspiration. The filters were washed 5 times with 3ml of the buffer (50mM Tris-HCl, pH7.4). The radioactivity was counted in 6ml of Clear-sol I in Packard scintillation counter (Packard TRI-CARB 4530).

Wistar rats = assay: Hypotensive effect (mean arterial pressure, femoral artery, intravenous administration); format: in vivo; conditions: dose 1.0 mg/kg, intravenously
Method: Three Wistar rats were used per group. Each animal was placed in a cage sized to the body after cannulation of catheters into the femoral artery and vein under ether anesthesia. Blood pressure was measured in the femoral artery by means of a pressure transducer and recorded as electrically integrated values of mean arterial pressure. Heart rate was counted from instant arterial pressure pulses by running the record paper at a faster speed periodically.
The test compound was administered intravenously through a catheter cannulated in the femoral vein more than 2 hours later the completion of the operation.

Ki (β receptor): 507 nM
Structure (SMILES): COC(=O)C1=C(C(F)(F)F)NC(C)=C(C(=O)OCCc2ccc(OCC(O)CNC(C)C)cc2)C1c1cccc([N+](=O)[O-])c1 (centres unmarked) [Dihydropyridine A, 2-{p-(2-hydroxy-3-isopropylaminopropoxy)phenyl}ethyl 1,4-dihydro-3-methoxycarbonyl-6-methyl-4-m-nitrophenyl-2-trifluoromethylpyridine-5-carboxylate]
Maximum change of blood pressure (Wistar rats): -39(%)
